US4948797A, “2,2-disubstitued 2,3-dihydro-1,4-benzodioxin derivatives having hypotensive activity” (Istituto Luso Farmaco d'Italia S.p.A., priority 1988, dated 1990)

Assays:
α1 receptors = test: in vitro affinity for the α1 receptors, determined in respect of [^3 H]-Prazosin; type: binding
Text: (§1) Bremner, Eur. J. Pharmacol 55, 323 (1979) and D. C. U. Prichard et al, Mol. Pharmacol 13, 454 (1977), while in vivo they seem to have a low toxicity and a good and durable anti-hypertensive activity, determined in the SHR rat by oral route, with the method reported by J Pfeffer et al, J. Lab. Clin. Med. 78, 957 (1971).

α2 receptors = test: in vitro action on the α2 receptors, determined in respect of [^3 H]-Clonidine; type: binding
Text: as §1

[1] = toxicity, expressed as LD50, oral; details: in vivo
SHR rat = test: anti-hypertensive activity in the SHR rat by oral route (with heart rate); type: in vivo
Text: as §1

COc1cc2nc(N3CCN(CC(O)C4(C)COc5ccccc5O4)CC3)nc(N)c2cc1OC.Cl (stereo not shown) [1-(4-amino-6,7-dimethoxyquinazolin-2-yl)-4-[2-(2,3-dihydro-2-methyl-1,4-benzodioxin-2-yl)-2-hydroxyethyl]-piperazine hydrochloride]
IC50 (α1 receptors): 3.6 nM | IC50 (α2 receptors): > 10000 nM | LD50 [1]: > 2000 mg/kg | effect on heart rate (SHR rat; 30 mg/kg/os dosage): without significantly modifying the heart rate | reduction in the pressure (SHR rat; SHR rat, 30 mg/kg/os dosage): 20%

CC1(C(O)CN2CCC(n3c(=O)[nH]c4ccccc43)CC2)COc2ccccc2O1 (racemic) [1-[2-(2,3-dihydro-2-methyl-1,4-benzodioxin-2-yl)-2-hydroxy-ethyl]-4-piperidinyl]-1,3-dihydro-2H-benzimidazol-2-one]
IC50 (α1 receptors): 55 nM | IC50 (α2 receptors): 18000 nM | LD50 [1]: ~1000 mg/kg | effect on heart rate (SHR rat; 20 mg/kg/os dosage): without significantly varying the heart rate | reduction of the pressure (SHR rat; SHR rat, 20 mg/kg/os dosage): 21%
